Source: patent US9062043B2, “Fused tricyclic compounds as serine-threonine protein kinase and PARP modulators” (SENHWA BIOSCIENCES, INC., priority 2006, dated 2015)
pIC50: −log10 of the molar value. Where two headings read alike, the source gives them in different places.

Tests used:
[1] = test system: HCT-116 human colorectal carcinoma cells; test: Cell proliferation assay, Alamar Blue, HCT-116; type: cell-based;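 also: cells exposed to compound for about 4 days, then Alamar Blue added and fluorescence read after about 4 h, medium-only wells as control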
H1299 = test: Cell proliferation assay, Alamar Blue, H1299; type: cell-based; conditions: Homo sapiens, NCI-H1299
Procedure: (§1) c. Plate 4,000-5,000 cells per well in 100 μl of medium and seed into a 96-well plate according to the following plate layout. Add cell culture medium only to wells B10 to B12. Wells B1 to B9 have cells but no compound added.
(§2) d. Add 100 μl of 2× drug dilution to each well in a concentration shown in the plate layout above. At the same time, add 100 μl of media into the control wells (wells B10 to B12). Total volume is 200 μl/well.
(§3) e. Incubate four (4) days at 37° C., 5% CO2 in a humidified incubator.
(§4) f. Add 20 μl Alamar Blue reagent to each well.
(§5) g. Incubate for four (4) hours at 37° C., 5% CO2 in a humidified incubator.
(§6) h. Record fluorescence at an excitation wavelength of 544 nm and emission wavelength of 590 nm using a microplate reader.
(§7) In the assays, cells are cultured with a test compound for approximately four days, the dye then is added to the cells and fluorescence of […] dye is detected after approximately four hours. Different types of cells can be utilized in the assays (e.g., HCT-116 human colorectal carcinoma cells, PC-3 human prostatic cancer cells and MiaPaca human pancreatic carcinoma cells). Anti-proliferative effects of representative compounds are provided hereafter.

Hs578T = test: Cell proliferation assay, Alamar Blue, Hs578T; type: cell-based; conditions: Homo sapiens, Hs-578T
[2] = test system: MiaPaca human pancreatic carcinoma cells; test: Cell proliferation assay, Alamar Blue, MiaPaca; type: cell-based; conditions: MIA PaCa-2, Table 18
Procedure: (§8) A representative cell-proliferation assay protocol using Alamar Blue dye (stored at 4° C., use 20 ul per well) is described hereafter.
as §1, §2, §3, §4, §5, §6, §7

[3] = test system: PC-3 human prostatic cancer cells; test: Cell proliferation assay, Alamar Blue, PC-3; type: cell-based
Procedure: as §8, §1, §2, §3, §4, §5, §6, §7

Jurkat = test: Cell proliferation assay, Alamar Blue, Jurkat; type: cell-based; conditions: Homo sapiens;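 also: cells exposed to compound for about 4 days at 37 °C, then Alamar Blue added and fluorescence read after about 4 h, controls given medium without drug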
BxPC3 = test: Cell proliferation assay, Alamar Blue, BxPC3; type: cell-based; conditions: Homo sapiens, BXPC-3
Procedure: as §1, §2, §3, §4, §5, §6, §7

PanC1 = test: Cell proliferation assay, Alamar Blue, PanC1; type: cell-based; conditions: Homo sapiens, PANC-1; Table 19b; read-out: IC50 PanC1
Procedure: as §8, §1, §2, §3, §4, §5, §6, §7

[4] = Pharmacokinetics in ICR mice after IV and PO dose; type: in vivo
HT29 = test: Cell proliferation assay, Alamar Blue, HT29; type: cell-based; conditions: Homo sapiens, HT-29; Table 19b
Procedure: as §1, §2, §3, §4, §5, §6, §7

A549 = test: Cell proliferation assay, Alamar Blue, A549; type: cell-based; conditions: Homo sapiens, Table 16
Procedure: as §1, §2, §3, §4, §5, §6, §7

[5] = HCT-116, Table 16, first HCT-116 column

Question: With `O=C(O)c1ccc2c(c1)nc(NCCc1ccccc1)c1ccncc12` [drawing 1007] as the compound, how does the pIC50 ([1]; HCT-116, Table 18) read?
Answer: < 5.00

Question: What about the pIC50 (H1299; Table 18) of the same compound?
Answer: 4.68

Question: What about the pIC50 (Hs578T; Table 18) of the same compound?
Answer: 4.78

Question: And the pIC50 [2]?
Answer: 5.29

Question: What about the pIC50 ([3]; Table 18, read-out: IC50 PC3) of the same compound?
Answer: 4.63

Question: With `CC1CCCCN1CCCNc1ncc2c(n1)c(Nc1ccc(F)c(Cl)c1)nc1cc(C(=O)O)ccc12` (stereo not drawn) [drawing 1087] as the compound, how does the pIC50 (Jurkat; Table 18) read?
Answer: 5.54

Question: And the pIC50 [2]?
Answer: 5.50

Question: With `Fc1cc(Nc2nc3cc(-c4nnn[nH]4)ccc3c3cnccc23)ccc1Cl` as the compound, how does the pIC50 ([3]; Table 18, read-out: IC50 PC3) read?
Answer: < 4.30

Question: With `Nc1ncc2c(n1)c(NC1CC1)nc1cc(C(=O)O)ccc12` [drawing 1295] as the compound, how does the pIC50 (BxPC3; Table 19b) read?
Answer: 4.36

Question: What about the pIC50 (PanC1) of the same compound?
Answer: < 4.30

Question: With `CN(C)CCNc1nc2cc(C(=O)O)ccc2c2sccc12` as the compound, how does the pIC50 [1, 5] read?
Answer: < 5.00

Question: And the pIC50 (H1299; Table 16)?
Answer: 5.05

Question: And the pIC50 (Hs578T; Table 16)?
Answer: < 4.30

Question: And the pIC50 ([3]; Table 16, read-out: IC50 PC3)?
Answer: < 4.30

Question: With `O=C(O)c1ccc2c(c1)nc(Nc1cncc(C3CC3)c1)c1ncncc12` as the compound, how does the pIC50 ([1]; HCT-116, Table 18) read?
Answer: < 5.00

Question: And the pIC50 (Jurkat; Table 18)?
Answer: < 4.30

Question: Which results are given for `C#Cc1cccc(Nc2nc3cc(C(=O)O)ccc3c3cncnc23)c1` [drawing 1347]?
Answer: Kel ([4]; PO, 24.5 mg/kg): 0.0594 h⁻¹; AUC(0-inf) ([4]; mouse, plasma, IV, 3.4 mg/kg): 4900 ng·h/mL; AUC(0-t) ([4]; mouse, plasma, IV, 3.4 mg/kg): 4810 ng·h/mL; Cmax ([4]; mouse, plasma, IV, 3.4 mg/kg): 4740 ng/mL; Vd ([4]; mouse, plasma, IV, 3.4 mg/kg): 4.9 L/kg; AUC(0-inf) ([4]; mouse, plasma, PO, 24.5 mg/kg): 10900 ng·h/mL; AUC(0-t) ([4]; mouse, plasma, PO, 24.5 mg/kg): 9120 ng·h/mL; Cmax ([4]; mouse, plasma, PO, 24.5 mg/kg): 1600 ng/mL; Tmax ([4]; mouse, plasma, PO, 24.5 mg/kg): 30 min

Question: With `COC(=O)c1ccc2c(c1)nc(NC1CC1)c1nc(SC)ncc12` [drawing 1292] as the compound, how does the pIC50 (BxPC3; Table 19b) read?
Answer: 5.13

Question: What about the pIC50 (PanC1) of the same compound?
Answer: < 4.30

Question: With `CCOc1ncc2c(n1)c(NC1CC1)nc1cc(C(=O)O)ccc12` [drawing 1266] as the compound, how does the pIC50 (BxPC3; Table 19b) read?
Answer: 4.31

Question: And the pIC50 (PanC1)?
Answer: < 4.30

Question: With `Cc1cc(Nc2ncc3c(n2)c(Nc2ccc(F)c(Cl)c2)nc2cc(C(=O)O)ccc23)[nH]n1` [drawing 1286] as the compound, how does the pIC50 (BxPC3; Table 19b) read?
Answer: < 4.30

Question: And the pIC50 (PanC1)?
Answer: < 4.30

Question: With `CCCNc1ncc2c(n1)c(NC1CC1)nc1cc(C(=O)O)ccc12` [drawing 1103] as the compound, how does the pIC50 ([1]; HCT-116, Table 18) read?
Answer: < 5.00

Question: And the pIC50 (Jurkat; Table 18)?
Answer: 5.13

Question: And the pIC50 [2]?
Answer: 5.33

Question: With `O=C(O)c1ccc2c(c1)nc(NCCc1ccccc1)c1ccncc12` [drawing 1206] as the compound, how does the pIC50 (HT29) read?
Answer: 4.33

Question: Which results are given for `CN(C)CCNc1nc2cc(C(=O)O)ccc2c2cnc(NC3CC3)nc12` [drawing 1293]?
Answer: pIC50 (BxPC3; Table 19b): 4.89; pIC50 (PanC1): < 4.30

Question: With `C#Cc1cccc(Nc2nc3cc(C(=O)O)ccc3c3cnc(NCC4CC4)nc23)c1` [drawing 1257] as the compound, how does the pIC50 (BxPC3; Table 19b) read?
Answer: 6.09

Question: And the pIC50 (PanC1)?
Answer: 5.89

Question: Which results are given for `c1ccc(Nc2nc3cc(-c4nnc[nH]4)ccc3c3sccc23)cc1`?
Answer: pIC50 (BxPC3; Table 16): 5.71; pIC50 [1, 5]: 5.30; pIC50 ([1]; HCT-116, Table 16, second HCT-116 column): 5.12; pIC50 (Jurkat; Table 16): 5.20; pIC50 (A549): 4.84; pIC50 (H1299; Table 16): 4.75; pIC50 (Hs578T; Table 16): 5.26; pIC50 ([3]; Table 16, read-out: IC50 PC3): 5.14

Question: With `C#Cc1cccc(Nc2nc3cc(C(=O)O)ccc3c3cnc(NCC4CC4)nc23)c1` [drawing 1064] as the compound, how does the pIC50 ([1]; HCT-116, Table 18) read?
Answer: < 5.00

Question: And the pIC50 (Jurkat; Table 18)?
Answer: 6.38

Question: What about the pIC50 [2] of the same compound?
Answer: 6.32

Question: With `O=C(O)c1ccc2c(c1)nc(N1CCOCC1)c1nc(NC3CC3)ncc12` [drawing 1278] as the compound, how does the pIC50 (BxPC3; Table 19b) read?
Answer: < 4.30

Question: And the pIC50 (PanC1)?
Answer: < 4.30

Question: With `O=C(O)c1ccc2c(c1)nc(NC1CC1)c1nc(Nc3ccccc3)ncc12` [drawing 1076] as the compound, how does the pIC50 ([1]; HCT-116, Table 18) read?
Answer: < 5.00

Question: And the pIC50 (Jurkat; Table 18)?
Answer: 5.34

Question: And the pIC50 [2]?
Answer: 5.61

Question: With `O=C(O)c1ccc2c(c1)nc(NC1CC1)c1nc(SCc3ccccc3Cl)ncc12` [drawing 1265] as the compound, how does the pIC50 (BxPC3; Table 19b) read?
Answer: 4.34

Question: And the pIC50 (PanC1)?
Answer: < 4.30

Question: What does the source list for `O=C(O)c1ccc2c(c1)nc(NCCc1cccc(F)c1)c1ccncc12` [drawing 1022]?
Answer: pIC50 ([1]; HCT-116, Table 18): < 5.00; pIC50 (Hs578T; Table 18): 4.61; pIC50 [2]: < 5.00; pIC50 ([3]; Table 18, read-out: IC50 PC3): 4.57

Question: With `O=C(O)c1ccc2c(c1)nc(NCc1ccccc1)c1ccncc12` [drawing 1218] as the compound, how does the pIC50 (BxPC3; Table 19b) read?
Answer: < 4.30

Question: And the pIC50 (PanC1)?
Answer: < 4.30

Question: With `O=C(O)c1ccc2c(c1)nc(NC1CC1)c1nc(NCc3ccccc3)ncc12` [drawing 1075] as the compound, how does the pIC50 ([1]; HCT-116, Table 18) read?
Answer: < 5.00

Question: And the pIC50 (Jurkat; Table 18)?
Answer: 5.05

Question: What about the pIC50 [2] of the same compound?
Answer: 4.83

Question: What does the source list for `C#Cc1cccc(Nc2nc3cc(C(=O)O)ccc3c3cnc(NCC4CCCO4)nc23)c1` (stereo not drawn) [drawing 1256]?
Answer: pIC50 (BxPC3; Table 19b): 5.92; pIC50 (PanC1): 5.18

Question: With `CC1CCCCN1CCCNc1ncc2c(n1)c(Nc1ccc(F)c(Cl)c1)nc1cc(C(=O)O)ccc12` (stereo not drawn) [drawing 1280] as the compound, how does the pIC50 (BxPC3; Table 19b) read?
Answer: 5.48

Question: And the pIC50 (PanC1)?
Answer: 4.98

Question: With `O=C(O)c1ccc2c(c1)nc(NCc1ccccc1)c1nc(NC3CC3)ncc12` [drawing 1277] as the compound, how does the pIC50 (BxPC3; Table 19b) read?
Answer: 4.65

Question: What about the pIC50 (PanC1) of the same compound?
Answer: 4.72

Question: With `O=C(O)c1ccc2c(c1)nc(NCCCc1ccccc1)c1ccncc12` [drawing 1221] as the compound, how does the pIC50 (BxPC3; Table 19b) read?
Answer: 4.63

Question: And the pIC50 (PanC1)?
Answer: 4.46

Question: And the pIC50 (HT29)?
Answer: 4.79
